Results from patent US20110312974A1, “HETEROARYL ANTAGONISTS OF PROSTAGLANDIN D2 RECEPTORS” (AMIRA PHARMACEUTICALS, INC., priority 2008, published 2011).

Target: T1, human DP2 receptor (Homo sapiens, UniProt Q9Y5Y4)
T1 construct: expressed in transfected cells; membrane preparation
T1 sequence (Q9Y5Y4 1-395): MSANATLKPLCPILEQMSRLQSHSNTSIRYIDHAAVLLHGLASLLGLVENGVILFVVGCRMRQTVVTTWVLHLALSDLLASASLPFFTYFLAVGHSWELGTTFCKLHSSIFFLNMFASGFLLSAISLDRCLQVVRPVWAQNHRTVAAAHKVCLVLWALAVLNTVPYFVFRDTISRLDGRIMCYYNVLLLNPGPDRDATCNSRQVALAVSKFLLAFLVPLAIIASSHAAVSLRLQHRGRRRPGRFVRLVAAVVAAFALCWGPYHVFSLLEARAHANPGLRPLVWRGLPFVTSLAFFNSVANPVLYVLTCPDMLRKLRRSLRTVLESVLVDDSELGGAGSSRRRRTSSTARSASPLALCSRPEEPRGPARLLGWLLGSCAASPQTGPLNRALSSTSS
Assay: DP2/CRTH2 radioligand binding assay using [3H]PGD2
Conditions: hDP2 (CRTH2) binding assay; membranes of HEK293 cells expressing recombinant human DP2, 1 nM [3H]PGD2
Method: The ability of a compound to bind to the human DP2 receptor is assessed via a radioligand binding assay using [^3H]PGD2. HEK293 cells stably expressing recombinant human DP2 are resuspended in 10 mM Hepes, 7.4 containing 1 mM DTT, lysed and centrifuged at 75,000×g to pellet the membranes. The membranes are resuspended in 10 mM Hepes, 7.4 containing 1 mM DTT and 10% glycerol to approximately 5 mg protein/ml. Membranes (2-10 μg protein/well) are incubated in 96-well plates with 1 nM [^3H]PGD2 and test compound in Assay Buffer (50 mM Hepes, 10 mM MnCl2, 1 mM EDTA, plus or minus 0.2% human serum albumin, pH 7.4) for 60 minutes at room temperature. The reactions are terminated by rapid filtration through Whatman GF/C glass fibre filter plates. The filter plates were pre-soaked in 0.33% polythylenimine for 30 minutes at room temperature then washed in Wash Buffer (50 mM Hepes, 0.5 M NaCl pH 7.4) prior to harvesting. After harvesting, the filter plates are washed 3 times with 1 ml cold Wash Buffer then dried. Scintillant is then added to the plates and the radioactivity retained on the filters is determined on a Packard TopCount (Perkin Elmer). Specific binding is determined as total radioactive binding minus non-specific binding in the presence of 10 μM PGD2. IC50s were determined using GraphPad prism analysis of drug titration curves.

IC50, > 1000 nM:
CC(=O)NCc1ccc(-c2cncc(CC(=O)O)c2)c(CN(Cc2ccccc2)C(=O)C2CC2)c1 [Compound 1-9, (5-{4-(Acetylamino-methyl)-2-[(N-benzyl-N-cyclopropanecarbonyl-amino)-methyl]-phenyl}-pyridin-3-yl)-acetic acid]
CS(=O)(=O)NCc1ccc(-c2cncc(CC(=O)O)c2)c(CN(Cc2ccccc2)C(=O)C2CC2)c1 [Compound 1-10, {5-[2-[(N-Benzyl-N-cyclopropanecarbonyl-amino)-methyl]-4-(methanesulfonylamino-methyl)-phenyl]-pyridin-3-yl}-acetic acid]
CCN(Cc1cc(F)ccc1-c1cncc(C(C)C(=O)O)c1)C(=O)C1CC1 (stereo not shown) [Compound 1-13, 2-(5-[2-[(N-Cyclopropanecarbonyl-N-ethyl-amino)-methyl]-4-fluoro-phenyl]-pyridin-3-yl)-propionic acid]
CCN(Cc1cc(C(F)(F)F)ccc1-c1cc(CC(=O)O)ccn1)C(=O)NCc1ccccc1 [Compound 1-34, {2-[2-(3-Benzyl-1-ethyl-ureidomethyl)-4-trifluoromethyl-phenyl]-pyridin-4-yl}-acetic acid]
CCN(Cc1cc(C(F)(F)F)ccc1-c1cc(CC(=O)O)ccn1)C(=O)C1CC1 [Compound 1-35, (2-{2-[(N-Cyclopropanecarbonyl-N-ethyl-amino)-methyl]-4-trifluoromethyl-phenyl}-pyridin-4-yl)-acetic acid]
CCN(Cc1cc(C(F)(F)F)ccc1-c1cc(CC(=O)O)ccn1)C(=O)C1CCC1 [Compound 1-36, (2-{2-[(N-Cyclobutanecarbonyl-N-ethyl-amino)-methyl]-4-trifluoromethyl-phenyl}-pyridin-4-yl)-acetic acid]
CCN(Cc1cc(C(F)(F)F)ccc1-c1cc(CC(=O)O)ccn1)C(=O)c1ccccc1 [Compound 1-37, (2-{2-[(N-Benzoyl-N-ethyl-amino)-methyl]-4-trifluoromethyl-phenyl}-pyridin-4-yl)-acetic acid]
CCN(Cc1cc(C(F)(F)F)ccc1-c1cccc(CC(=O)O)n1)C(=O)OC(C)(C)C [Compound 1-38, (6-{2-[(N-tert-Butoxycarbonyl-N-ethyl-amino)-methyl]-4-trifluoromethyl-phenyl}-pyridin-2-yl)-acetic acid]
CCN(Cc1cc(C(F)(F)F)ccc1-c1cccc(CC(=O)O)n1)C(=O)NCc1ccccc1 [Compound 1-39, {6-[2-(3-Benzyl-1-ethyl-ureidomethyl)-4-trifluoromethyl-phenyl]-pyridin-2-yl}-acetic acid]
CCN(Cc1cc(C(F)(F)F)ccc1-c1cccc(CC(=O)O)n1)C(=O)C1CC1 [Compound 1-40, (6-{2-[(N-Cyclopropanecarbonyl-N-ethyl-amino)-methyl]-4-trifluoromethyl-phenyl}-pyridin-2-yl)-acetic acid]
O=C(O)Cc1cncc(-c2ccc(C(F)(F)F)cc2CN(CCc2ccccn2)C(=O)C2CC2)c1 [Compound 1-64, [5-(2-{[N-Cyclopropanecarbonyl-N-(2-pyridin-2-yl-ethyl)-amino]-methyl}-4-trifluoromethyl-phenyl)-pyridin-3-yl]-acetic acid]

IC50, 300 to 1000 nM:
O=C(O)Cc1cncc(-c2ccc(C(=O)N3CCCC3)cc2CN(Cc2ccccc2)C(=O)C2CC2)c1 [Compound 1-8, {5-[2-[(N-Benzyl-N-cyclopropanecarbonyl-amino)-methyl]-4-(pyrrolidine-1-carbonyl)-phenyl]-pyridin-3-yl}-acetic acid]
CCN(Cc1cc(F)ccc1-c1cncc(C(C)C(=O)O)c1)C(=O)NCc1ccccc1 (stereo not shown) [Compound 1-12, 2-{5-[2-(3-Benzyl-1-ethyl-ureidomethyl)-4fluoro-phenyl]-pyridin-3-yl}-propionic acid]
COCC(=O)N(Cc1cnc(C)cn1)Cc1cc(C(F)(F)F)ccc1-c1cncc(CC(=O)O)c1 [Compound 1-60, [5-(2-{[N-(2-Methoxy-acetyl)-N-(5-methyl-pyrazin-2-ylmethyl)-amino]-methyl}-4-trifluoromethyl-phenyl)-pyridin-3-yl]-acetic acid]
O=C(O)Cc1cncc(-c2ccc(C(F)(F)F)cc2CN(CCc2cccnc2)C(=O)C2CC2)c1 [Compound 1-65, [5-(2-{[N-Cyclopropanecarbonyl-N-(2-pyridin-3-yl-ethyl)-amino]-methyl}-4-trifluoromethyl-phenyl)-pyridin-3-yl]-acetic acid]

IC50, < 300 nM:
CCN(Cc1cc(F)ccc1-c1cncc(C(C)C(=O)O)c1)C(=O)OCc1ccccc1 (stereo not shown) [Compound 1-11, 2-(5-{2-[(N-Benzyloxycarbonyl-N-ethyl-amino)-methyl]-4fluoro-phenyl}-pyridin-3-yl)-propionic acid]
O=C(O)Cc1cncc(-c2ccc(C(F)(F)F)cc2CN(C(=O)C2CC2)C2Cc3ccccc3C2)c1 [Compound 1-24, (5-{2-[(N-Cyclopropanecarbonyl-N-indan-2-yl-amino)-methyl]-4-trifluoromethyl-phenyl}-pyridin-3-yl)-acetic acid]
O=C(O)Cc1cncc(-c2ccc(C(F)(F)F)cc2CN(CCc2ccccc2)C(=O)C2CC2)c1 [Compound 1-26, (5-{2-[(N-Cyclopropanecarbonyl-N-phenethyl-amino)-methyl]-4-trifluoromethyl-phenyl}-pyridin-3-yl)-acetic acid]
CC(=O)N(CCc1ccccc1)Cc1cc(C(F)(F)F)ccc1-c1cncc(CC(=O)O)c1 [Compound 1-27, (5-{2-[(N-Acetyl-N-phenethyl-amino)-methyl]-4-trifluoromethyl-phenyl}-pyridin-3-yl)-acetic acid]
CCN(Cc1cc(C(F)(F)F)ccc1-c1cc(C(F)(F)F)cc(CC(=O)O)n1)C(=O)C1CCC1 [Compound 1-41, (6-{2-[(N-Cyclobutanecarbonyl-N-ethyl-amino)-methyl]-4-trifluoromethyl-phenyl}-4-trifluoromethyl-pyridin-2-yl)-acetic acid]
CCN(Cc1cc(C(F)(F)F)ccc1-c1cc(C(F)(F)F)cc(CC(=O)O)n1)C(=O)NCc1ccccc1 [Compound 1-42, {6-[2-(3-Benzyl-1-ethyl-ureidomethyl)-4-trifluoromethyl-phenyl]-4-trifluoromethyl-pyridin-2-yl}-acetic acid]
CCN(Cc1cc(-n2cccn2)ccc1-c1cc(CC(=O)O)cnc1OC)C(=O)C1CC1 [Compound 1-46, (5-{2-[(N-Cyclopropanecarbonyl-N-ethyl-amino)-methyl]-4-pyrazol-1-yl-phenyl}-6-methoxy-pyridin-3-yl)-acetic acid]
O=C(O)Cc1cncc(-c2ccc(C(F)(F)F)cc2CN(Cc2ccccn2)C(=O)C2CC2)c1 [Compound 1-52, (5-{2-[(N-Cyclopropanecarbonyl-N-pyridin-2-ylmethyl-amino)-methyl]-4-trifluoromethyl-phenyl}-pyridin-3-yl)-acetic acid]
CC(=O)N(Cc1ccccn1)Cc1cc(C(F)(F)F)ccc1-c1cncc(CC(=O)O)c1 [Compound 1-53, (5-{2-[(N-Acetyl-N-pyridin-2-ylmethyl-amino)-methyl]-4-trifluoromethyl-phenyl}-pyridin-3-yl)-acetic acid]
Cc1cnc(CN(Cc2cc(C(F)(F)F)ccc2-c2cncc(CC(=O)O)c2)C(=O)C2CC2)cn1 [Compound 1-58, [5-(2-{[N-Cyclopropanecarbonyl-N-(5-methyl-pyrazin-2-ylmethyl)-amino]-methyl}-4-trifluoromethyl-phenyl)-pyridin-3-yl]-acetic acid]
O=C(O)Cc1cncc(-c2ccc(C(F)(F)F)cc2CN(Cc2ccc(C(F)(F)F)nc2)C(=O)C2CC2)c1 [Compound 1-59, [5-(2-{[N-Cyclopropanecarbonyl-N-(6-trifluoromethyl-pyridin-3-ylmethyl)-amino]-methyl}-4-trifluoromethyl-phenyl)-pyridin-3-yl]-acetic acid]
CC(=O)N(Cc1cnc(C)cn1)Cc1cc(C(F)(F)F)ccc1-c1cncc(CC(=O)O)c1 [Compound 1-61, [5-(2-{[N-Acetyl-N-(5-methyl-pyrazin-2-ylmethyl)-amino]-methyl}-4-trifluoromethyl-phenyl)-pyridin-3-yl]-acetic acid]
CC(=O)N(Cc1ccc(C(F)(F)F)nc1)Cc1cc(C(F)(F)F)ccc1-c1cncc(CC(=O)O)c1 [Compound 1-62, [5-(2-{[N-Acetyl-N-(6-trifluoromethyl-pyridin-3-ylmethyl)-amino]-methyl}-4-trifluoromethyl-phenyl)-pyridin-3-yl]-acetic acid]
